Assay results: the supplement of paper PMC12317010

Test: collision cross section in nitrogen (drift tube, single-field); higher = larger gas-phase ion size
[1] = ion type: [M+H], ion source: APCI, ion mode: Positive
[2] = ion type: [M+H], ion source: ESI, ion mode: Positive
[3] = ion type: [M+], ion source: APCI, ion mode: Positive
[4] = ion type: [M-H], ion source: ESI, ion mode: Negative
[5] = ion type: [M+Na], ion source: ESI, ion mode: Positive
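Further: chemical standards at 10 µM analysed by drift tube IMS-QTOF MS in about 3.95 torr nitrogen, mean of duplicate injections differing ≤1%, mass error below 10 ppm.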

Structure (SMILES)	collision cross section in nitrogen [1] [Å²]	collision cross section in nitrogen [2] [Å²]	collision cross section in nitrogen [3] [Å²]	collision cross section in nitrogen [4] [Å²]	collision cross section in nitrogen [5] [Å²]
CC(C)(c1ccccc1)c1ccc(Nc2ccc(C(C)(C)c3ccccc3)cc2)cc1	220.2	220.3	218.2	222.7	
CC(C)(O)c1cnn2c(-c3ccc(F)c(-c4c(F)cccc4C#N)c3)cnc2n1	197.1	196.4		198.6	209.2
Cc1c(-c2cccnc2)c2ccccc2n1CCCCC(=O)O	176.6	176.7		183.7	
Cc1oc(-c2ccccc2)nc1CCOc1cccc2c1ccn2CCC(=O)O	190.8	190.6			186.3
Cc1cc(SCc2sc(-c3ccc(C(F)(F)F)c(F)c3)nc2C)ccc1OCC(=O)O	194.4	194.2		199.5	
Cc1[nH]nc2c1N=C(c1ccccc1Cl)c1cc([N+](=O)[O-])ccc1N2	180.2	180	180.3	181.1	
Cc1cc(CCC(=O)OCCOCCOCCOC(=O)CCc2cc(C)c(O)c(C(C)(C)C)c2)cc(C(C)(C)C)c1O	233.4		234.2	237.8	236.4
Cc1nc(-c2ccccn2)ncc1C(=O)Nn1cc(C)c2cc(F)ccc21	184.3	184.3	190.7	193.9	181.8
Cc1ncc([C@@H](CCCCCCc2ccc3c(n2)NCCC3)CC(=O)O)cn1	192.3	192.4		199.2	199.7
CCC(C)N(C)C(=O)c1cc2ccccc2c(-c2ccccc2Cl)n1 (stereo not drawn)	186.6	185.9			192.8
CCC(Cc1ccccc1)(C(=O)c1ccc(N2CCOCC2)cc1)N(C)C (stereo not drawn)	195.7	195.7			
CCCCOC(=O)[C@@H](C)Oc1ccc(Oc2ccc(C(F)(F)F)cn2)cc1		195.5			194.5
CCCC[C@H]1CN(CC2CCOCC2)C(=O)OC12CCN(C1(C)CCN(C(=O)c3c(C)ncnc3C)CC1)CC2	245	244.1	239.9	248.6	240.5
CCCN(C1CCN(C(=O)C2CCNCC2)CC1)[C@@H]1CCc2ccc(OC)cc2C1	209	199.1			201
CCCOc1ccc(S(=O)(=O)N2CCN(CC)CC2)cc1-c1nc2c(CC)n(Cc3ccccn3)nc2c(=O)[nH]1	237	236.5		238.6	256.9
CCN(CC)CCNc1ccc(CNC=O)c2sc3ccc(OC)cc3c(=O)c12	196.9	197			198.8
CCN1CCC2(CC1)COc1cc3c(cc12)N(C(=O)c1ccc(-c2ccc(-c4nnc(C)o4)cc2C)cc1)CC3	229.6	229.1			264.1
CCn1nc(C)c2c1C(=O)NCC(c1ccc(O)cc1)=N2	170.8	170.3		172.9	
CCOC(=O)COc1ccc2c(c1)CC(NCC(O)c1cccc(Cl)c1)CC2 (stereo not drawn)	192.3	192.2		194.5	198.6
CCOC(=O)c1ccc([C@H]2CC[C@H](NC[C@H](O)COc3ccc(O)c(NS(C)(=O)=O)c3)CC2)cc1	212.8	231.4		225.6	230.3
CCOc1cccc(-n2cc(C(=O)N3CCN(c4cc(C(=O)O)c5ccccc5c4)CC3)nc2-c2ccc(C)cc2)c1	228.4	228.8		232.5	233.2
Cc1cc(F)ccc1-c1cc(N2CC[C@@H](O)[C@H]2CO)ncc1N(C)C(=O)C(C)(C)c1cc(C(F)(F)F)cc(C(F)(F)F)c1	245.7	244.6		232.7	246.4
CN(C)C(=O)C1(N2CCCCC2)CCN(CC[C@@]2(c3ccc(Cl)c(Cl)c3)CN(C(=O)c3ccccc3)CCO2)CC1	244.9	245.5			241.3
CN(C)C(=O)NC1(c2ccccc2)CCN(CCC[C@]2(c3ccc(Cl)c(Cl)c3)CCCN(C(=O)c3ccccc3)C2)CC1	252.9	252.5		246.6	256.5
CN(C)C(=O)NC1(c2ccccc2)CCN(CC[C@@]2(c3ccc(F)c(F)c3)CN(C(=O)c3ccccc3)CCO2)CC1	241.2	241.6			243
CN1C(=O)N(c2ccccc2Br)Cc2cnc(Nc3ccc4c(c3)OCC(CO)O4)nc21 (stereo not drawn)	219.5	218.9	215.4	220.2	219.1
